From patent publication US20230055237A1, “COMPOUNDS AND METHODS FOR THE TREATMENT OF CYSTIC FIBROSIS” (Flatley Discovery Lab, LLC, priority 2019, published 2023) come the findings set out here.

The target in the assay is T1, CFTR (Homo sapiens, UniProt P13569, DEL508-508).
T1 construct: Primary CF airway epithelial cells were obtained from the UNC Cystic Fibrosis Tissue Procurement and Cell Culture Core; host or cells: primary CF airway epithelial cells, differentiated at the air-liquid interface
Kind of assay: Equivalent current assay in primary CF airway epithelial cells (NAUC, combination with 1st site corrector FDL169 or VX-809). As to conditions: 37° C., 24 h. The class given is cell-based.

[1] abbreviates: test compound 3 μM in combination with 1st site corrector VX-809 (3 μM).
Where [2] appears, read: test compound 10 μM in combination with 1st site corrector VX-809 (3 μM).
Where [3] appears, read: test compound 1 μM in combination with 1st site corrector FDL169 (3 μM).
Where [4] appears, read: test compound 3 μM in combination with 1st site corrector FDL169 (3 μM).
The mark [5] stands for this setting: test compound 1 μM in combination with 1st site corrector VX-809 (3 μM).
The mark [6] stands for this setting: test compound 10 μM in combination with 1st site corrector FDL169 (3 μM).

T1 sequence (P13569 with tags, fused parts or gaps DEL508-508): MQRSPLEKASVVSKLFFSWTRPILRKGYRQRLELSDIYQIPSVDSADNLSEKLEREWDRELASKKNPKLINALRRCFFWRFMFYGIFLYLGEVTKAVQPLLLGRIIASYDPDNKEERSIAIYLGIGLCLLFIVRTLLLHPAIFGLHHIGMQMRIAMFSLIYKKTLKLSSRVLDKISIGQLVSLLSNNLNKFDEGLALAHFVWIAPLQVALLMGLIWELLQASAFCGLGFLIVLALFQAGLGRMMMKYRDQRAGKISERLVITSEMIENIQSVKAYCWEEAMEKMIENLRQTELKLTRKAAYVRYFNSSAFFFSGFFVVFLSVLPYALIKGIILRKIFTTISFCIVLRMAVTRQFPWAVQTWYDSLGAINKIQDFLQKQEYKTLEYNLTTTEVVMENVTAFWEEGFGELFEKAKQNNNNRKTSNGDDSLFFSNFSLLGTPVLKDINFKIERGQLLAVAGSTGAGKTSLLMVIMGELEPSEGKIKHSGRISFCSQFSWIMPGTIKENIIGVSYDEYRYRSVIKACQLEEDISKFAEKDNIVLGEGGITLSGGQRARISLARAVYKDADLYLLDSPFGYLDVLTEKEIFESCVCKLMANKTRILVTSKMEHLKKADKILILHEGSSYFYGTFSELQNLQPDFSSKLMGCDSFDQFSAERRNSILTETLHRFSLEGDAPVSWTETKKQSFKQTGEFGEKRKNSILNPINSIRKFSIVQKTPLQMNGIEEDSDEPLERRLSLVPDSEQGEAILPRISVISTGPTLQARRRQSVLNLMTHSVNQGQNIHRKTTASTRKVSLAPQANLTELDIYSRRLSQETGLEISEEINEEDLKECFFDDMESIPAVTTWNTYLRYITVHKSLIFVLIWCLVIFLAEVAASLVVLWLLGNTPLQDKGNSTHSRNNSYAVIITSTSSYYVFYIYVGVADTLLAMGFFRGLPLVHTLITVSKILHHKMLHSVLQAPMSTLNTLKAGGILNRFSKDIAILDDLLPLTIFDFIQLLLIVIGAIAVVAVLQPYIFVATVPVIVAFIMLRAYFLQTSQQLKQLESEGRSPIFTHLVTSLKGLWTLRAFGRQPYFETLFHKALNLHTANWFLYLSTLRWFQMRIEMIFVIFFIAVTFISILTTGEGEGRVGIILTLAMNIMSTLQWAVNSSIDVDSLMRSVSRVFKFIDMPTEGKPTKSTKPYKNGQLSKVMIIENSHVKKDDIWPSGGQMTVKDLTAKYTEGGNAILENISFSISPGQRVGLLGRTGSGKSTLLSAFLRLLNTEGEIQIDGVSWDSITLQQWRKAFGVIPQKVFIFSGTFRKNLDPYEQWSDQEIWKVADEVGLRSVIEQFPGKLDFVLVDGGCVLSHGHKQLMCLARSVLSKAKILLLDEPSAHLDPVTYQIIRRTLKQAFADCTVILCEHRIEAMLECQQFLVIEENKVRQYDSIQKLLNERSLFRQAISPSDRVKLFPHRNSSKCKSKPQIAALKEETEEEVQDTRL

Consider `O=C(Nc1cc(Cl)cc(Cl)c1)C1CN(S(=O)(=O)CCc2ccccc2)C2(C(=O)Nc3c(Cl)cc(Cl)cc32)C1C(=O)O` (centres unmarked) [Example 25], for which the “Nauc @ 3 μM” value under setting [1] is given as “+ (NAUC “+” refers to an observed NAUC <140% of positive control)”. For the same molecule, the “Nauc @ 10 μM” value under setting [2] was “++ (NAUC “++” refers to an observed NAUC 170-140% of positive control)”.
Regarding `Cn1cnc2cc(NC(=O)[C@H]3[C@H]4CC(F)(F)CN4[C@]4(C(=O)Nc5c(Cl)cc(Cl)cc54)[C@H]3C(=O)O)ccc21` [Example 146], the “Nauc @ 1 μM” value under setting [3] is recorded as “+ (NAUC “+” refers to an observed NAUC <140% of positive control)”. In addition, the “Nauc @ 3 μM” value under setting [4] is recorded as “+ (NAUC “+” refers to an observed NAUC <140% of positive control)”.
For the molecule `C[C@]1(O)CC2C(C(=O)Nc3cc(Cl)cc(Cl)c3)C(C(=O)NS(C)(=O)=O)C3(C(=O)Nc4c(Cl)cc(Cl)cc43)N2C1` (stereo partly drawn) [Example 247, (6′S)-5,7-dichloro-N1′-(3,5-dichlorophenyl)-6′-hydroxy-6′-methyl-N2′-(methylsulfonyl)-2-oxo-1′,2′,5′,6′,7′,7a′-hexahydrospiro[indoline-3,3′-pyrrolizine]-1′,2′-dicarboxamide], under setting [5], the “Nauc @ 1 μM” value is “+ (NAUC “+” refers to an observed NAUC <140% of positive control)”. The “Nauc @ 3 μM” value under setting [1] was “++ (NAUC “++” refers to an observed NAUC 170-140% of positive control)”. In addition, under setting [2], the “Nauc @ 10 μM” value is reported as “+++ (NAUC “+++” refers to an observed NAUC>170% of positive control)”.
Turning to `CN(C(=O)[C@H]1[C@H]2CC(F)(F)CN2C2(C(=O)Nc3cc(Cl)ccc32)[C@H]1C(=O)O)c1cc(Cl)cc(Cl)c1` (some centres unmarked) [Example 101], the “Nauc @ 1 μM” value under setting [3] is “+ (NAUC “+” refers to an observed NAUC <140% of positive control)”. The “Nauc @ 3 μM” value under setting [4] is recorded as “+ (NAUC “+” refers to an observed NAUC <140% of positive control)”.
In the case of `O=C(Nc1cc(Cl)cc(Cl)c1)C1C(C(F)(F)c2ccc(C(F)(F)F)cc2)NC2(C(=O)Nc3c(Cl)cc(Cl)cc32)C1C(=O)O` (centres unmarked) [Example 73.a], the “Nauc @ 10 μM” value under setting [2] is on record as “+ (NAUC “+” refers to an observed NAUC <140% of positive control)”.
`Cc1nn(C)cc1N(CC1CC1)C(=O)[C@H]1[C@H]2CC(F)(F)CN2[C@]2(C(=O)Nc3c(Cl)cc(Cl)cc32)[C@H]1C(=O)O` [Example 165]: under setting [3], the “Nauc @ 1 μM” value is “+ (NAUC “+” refers to an observed NAUC <140% of positive control)”. Under setting [4], the “Nauc @ 3 μM” value was “+ (NAUC “+” refers to an observed NAUC <140% of positive control)”.
`CC(C)(C)CN(C(=O)[C@H]1[C@@H](C(=O)O)C2(C(=O)Nc3c(Cl)cc(Cl)cc32)N2CCC[C@@H]12)c1cc(Cl)cc(Cl)c1` (single isomer, unassigned) [Example 82.6a, (1′R,2′S,7a′R)-5,7-dichloro-1-((3,5-dichlorophenyl)(neopentyl)carbamoyl)-2-oxo-1′,2′,5′,6′,7′,7a′-hexahydrospiro[indoline-3,3′-pyrrolizine]-2′-carboxylic acid]: the “Nauc @ 1 μM” value under setting [3] is recorded as “+++ (NAUC “+++” refers to an observed NAUC>170% of positive control)”. For the same molecule, the “Nauc @ 3 μM” value under setting [4] is “++ (NAUC “++” refers to an observed NAUC 170-140% of positive control)”.
Regarding `CCN(C(=O)[C@H]1[C@H]2CC(F)(F)CN2[C@]2(C(=O)Nc3c(Cl)cc(Cl)cc32)[C@H]1C(=O)O)c1cc(Cl)cc(Cl)c1` [Example 171], the “Nauc @ 1 μM” value under setting [3] is on record as “+++ (NAUC “+++” refers to an observed NAUC>170% of positive control)”. Besides, the “Nauc @ 3 μM” value under setting [4] is “+++ (NAUC “+++” refers to an observed NAUC>170% of positive control)”. Further, the “Nauc @ 10 μM” value under setting [6] was “+++ (NAUC “+++” refers to an observed NAUC>170% of positive control)”.
Consider `CN(C(=O)[C@H]1[C@@H](C(F)(F)F)NC2(C(=O)N(C)c3c(Cl)cc(Cl)cc32)[C@H]1C(=O)O)c1cc(Cl)cc(Cl)c1` (mixture of isomers) [Example 271, rac-(3′S,4′R,5′S)-5,7-dichloro-4′-((3,5-dichlorophenyl)(methyl)carbamoyl)-1-methyl-2-oxo-5′-(trifluoromethyl)spiro[indoline-3,2′-pyrrolidine]-3′-carboxylic acid], for which the “Nauc @ 1 μM” value under setting [5] is reported as “+ (NAUC “+” refers to an observed NAUC <140% of positive control)”. Moreover, the “Nauc @ 3 μM” value under setting [1] is “+++ (NAUC “+++” refers to an observed NAUC>170% of positive control)”. Besides, the “Nauc @ 10 μM” value under setting [2] is recorded as “+ (NAUC “+” refers to an observed NAUC <140% of positive control)”.
For the molecule `O=C(O)[C@H]1[C@@H](C(=O)N(CC2CCCC2)c2cc(Cl)cc(Cl)c2)[C@H]2CCCN2C12C(=O)Nc1c(Cl)cc(Cl)cc12` (single isomer, unassigned) [Example 84b], the “Nauc @ 1 μM” value under setting [3] is “+++ (NAUC “+++” refers to an observed NAUC>170% of positive control)”. For the same molecule, the “Nauc @ 3 μM” value under setting [4] is listed as “+ (NAUC “+” refers to an observed NAUC <140% of positive control)”.
Turning to `O=C(O)[C@H]1[C@@H](C(=O)N(Cc2ccccc2)c2cc(Cl)cc(Cl)c2)[C@H]2CC(F)(F)CN2[C@]12C(=O)Nc1c(Cl)cc(Cl)cc12` [Example 149], under setting [3], the “Nauc @ 1 μM” value was “++ (NAUC “++” refers to an observed NAUC 170-140% of positive control)”. The “Nauc @ 3 μM” value under setting [4] is given as “+++ (NAUC “+++” refers to an observed NAUC>170% of positive control)”. Moreover, the “Nauc @ 10 μM” value under setting [6] is “+ (NAUC “+” refers to an observed NAUC <140% of positive control)”.
Consider `CC(C)(C)c1cccc(CCNC(=O)C2C3N(CCC3(F)F)C3(C(=O)Nc4c(Cl)cc(Cl)cc43)C2C(=O)O)c1` (single isomer, unassigned) [Example 267, 1′-((3-(tert-butyl)phenethyl)carbamoyl)-5,7-dichloro-7′,7′-difluoro-2-oxo-1′,2′,5′,6′,7′,7a′-hexahydrospiro[indoline-3,3′-pyrrolizine]-2′-carboxylic acid], for which the “Nauc @ 1 μM” value under setting [5] is reported as “+++ (NAUC “+++” refers to an observed NAUC>170% of positive control)”. Moreover, the “Nauc @ 3 μM” value under setting [1] is recorded as “+++ (NAUC “+++” refers to an observed NAUC>170% of positive control)”. Besides, the “Nauc @ 10 μM” value under setting [2] is listed as “+++ (NAUC “+++” refers to an observed NAUC>170% of positive control)”.
Regarding `Cn1ccnc1NC(=O)[C@H]1[C@@H](C(=O)Nc2cc(Cl)cc(Cl)c2)[C@H]2CCCN2[C@]12C(=O)Nc1c(Cl)cc(Cl)cc12` (single isomer, unassigned) [Example 238, (1′R,2′S,7a′R)-5,7-dichloro-N1′-(3,5-dichlorophenyl)-N2′-(1-methyl-1H-imidazol-2-yl)-2-oxo-1′,2′,5′,6′,7′,7a′-hexahydrospiro[indoline-3,3′-pyrrolizine]-1′,2′-dicarboxamide], the “Nauc @ 1 μM” value under setting [5] was “+ (NAUC “+” refers to an observed NAUC <140% of positive control)”. Further, under setting [1], the “Nauc @ 3 μM” value is “+ (NAUC “+” refers to an observed NAUC <140% of positive control)”.
As for `CC(C)(C)CN(C(=O)[C@H]1[C@H]2CC(C)(C)CN2C2(C(=O)Nc3c(Cl)cc(Cl)cc32)[C@H]1C(=O)O)c1cc(Cl)cc(Cl)c1` (single isomer, unassigned) [Example 274.6a, (1′R,2′S,7a′R)-5,7-dichloro-1-((3,5-dichlorophenyl)(neopentyl)carbamoyl)-6′,6′-dimethyl-2-oxo1′,2′,5′,6′,7′,7a′-hexahydrospiro[indoline-3,3′-pyrrolizine]-2′-carboxylic acid], the “Nauc @ 1 μM” value under setting [3] was “++ (NAUC “++” refers to an observed NAUC 170-140% of positive control)”. Moreover, the “Nauc @ 3 μM” value under setting [4] was “+ (NAUC “+” refers to an observed NAUC <140% of positive control)”. For the same molecule, the “Nauc @ 10 μM” value under setting [6] was “+ (NAUC “+” refers to an observed NAUC <140% of positive control)”.
For `CN(C(=O)[C@H]1[C@H]2CC(F)(F)CN2C2(C(=O)Nc3ccccc32)[C@H]1C(=O)O)c1cc(Cl)cc(Cl)c1` (some centres unmarked) [Example 102], the “Nauc @ 10 μM” value under setting [2] is “+ (NAUC “+” refers to an observed NAUC <140% of positive control)”.
Regarding `O=C(Nc1cc(Cl)cc(Cl)c1)C1C(C(=O)O)C(c2cc(Cl)cc(Cl)c2)N2CCCC12` (centres unmarked) [Example 27], the “Nauc @ 3 μM” value under setting [1] is “++ (NAUC “++” refers to an observed NAUC 170-140% of positive control)”. Moreover, the “Nauc @ 10 μM” value under setting [2] was “++ (NAUC “++” refers to an observed NAUC 170-140% of positive control)”.
In the case of `O=C(O)[C@H]1[C@@H](C(=O)N(CC2CC2)c2cc(Cl)cc(Cl)c2)[C@H]2CCCN2C12C(=O)Nc1c(Cl)cc(Cl)cc12` (single isomer, unassigned) [Example 83b], the “Nauc @ 1 μM” value under setting [3] was “+++ (NAUC “+++” refers to an observed NAUC>170% of positive control)”. Moreover, the “Nauc @ 3 μM” value under setting [4] is given as “+++ (NAUC “+++” refers to an observed NAUC>170% of positive control)”.
With `CN(O)C(=O)C1C(C(=O)Nc2cc(Cl)cc(Cl)c2)C2CCCN2C12C(=O)Nc1c(Cl)cc(Cl)cc12` (single isomer, unassigned) [Example 235a, 5,7-dichloro-N1′-(3,5-dichlorophenyl)-N2′-hydroxy-N2′-methyl-2-oxo-1′,2′,5′,6′,7′,7a′-hexahydrospiro[indoline-3,3′-pyrrolizine]-1′,2′-dicarboxamide], under setting [5], the “Nauc @ 1 μM” value is listed as “++ (NAUC “++” refers to an observed NAUC 170-140% of positive control)”. Besides, the “Nauc @ 3 μM” value under setting [1] is given as “+++ (NAUC “+++” refers to an observed NAUC>170% of positive control)”. The “Nauc @ 10 μM” value under setting [2] is given as “+++ (NAUC “+++” refers to an observed NAUC>170% of positive control)”.
For the molecule `CN(O)C(=O)[C@@H]1[C@@H](C(=O)N(C)c2cc(Cl)cc(Cl)c2)[C@H]2CC(F)(F)CN2[C@]12C(=O)Nc1c(Cl)cc(Cl)cc12` [Example 260b, (1′R,2′R,3R,7a′R)-5,7-dichloro-N1′-(3,5-dichlorophenyl)-6′,6′-difluoro-N2′-hydroxy-N1′,N2′-dimethyl-2-oxo-1′,2′,5′,6′,7′,7a′-hexahydrospiro[indoline-3,3′-pyrrolizine]-1′,2′-dicarboxamide], under setting [5], the “Nauc @ 1 μM” value is reported as “+ (NAUC “+” refers to an observed NAUC <140% of positive control)”. The “Nauc @ 3 μM” value under setting [1] was “+ (NAUC “+” refers to an observed NAUC <140% of positive control)”. For the same molecule, the “Nauc @ 10 μM” value under setting [2] was “+ (NAUC “+” refers to an observed NAUC <140% of positive control)”.
